Measured values as given in patent US9181218B2, “Compounds for improved stem cell differentiation into hepatocytes” (Hoffmann-La Roche Inc., priority 2013, dated 2015).

Test system: interferon-stimulated genes (ISGs)
Assay: Microarray analysis of iCell Hepatocytes treated with the compound of example 1
Assay type: cell-based, Human
Excerpt: iCell Hepatocytes treated with the compound of example 1 results in the up and down-regulation of a host of genes; including a kinetic effect on interferon-stimulated gene (ISGs) expression. See FIGS. 15-I and 15-II, 16-I and 16-II and 18 and Table 1.

For O=C(NCc1cccc(F)c1)c1cccc2nc(-c3c(NC[C@@H](O)c4ccccc4)cc[nH]c3=O)[nH]c12 [Example 1, 2-[4-((S)-2-hydroxy-2-phenyl-ethylamino)-2-oxo-1,2-dihydro-pyridin-3-yl]-3H-benzoimidazole-4-carboxylic acid 3-fluoro-benzylamide], the “IFITM2 Raw Est Fold Change” value (24 HOUR) was −1.90, the “IFITM3 Raw Est Fold Change” value (24 HOUR) was −1.36 and the “IFNGR1 Raw Est Fold Change” value (24 HOUR) was −2.46. The “IGHM Raw Est Fold Change” value (24 HOUR) was −2.00, the “IL6 Raw Est Fold Change” value (24 HOUR) was −4.57 and the “IL6ST Raw Est Fold Change” value (24 HOUR) was −1.25. The “IL8 Raw Est Fold Change” value (24 HOUR) was −4.32, the “IL28RA Raw Est Fold Change” value (24 HOUR) was 1.28 and the “IMPA2 Raw Est Fold Change” value (24 HOUR) was −1.80. The “IQGAP1 Raw Est Fold Change” value (24 HOUR) was −1.70, the “IRF3 Raw Est Fold Change” value (24 HOUR) was 1.26 and the “IRF7 Raw Est Fold Change” value (24 HOUR) was −3.86. For the same molecule, the “ISG20 Raw Est Fold Change” value (24 HOUR) was −1.70, the “ISGF3G Raw Est Fold Change” value (24 HOUR) was −1.37 and the “ITGA2 Raw Est Fold Change” value (24 HOUR) was −1.94. The “JAK1 Raw Est Fold Change” value (24 HOUR) was −1.17, the “JAK2 Raw Est Fold Change” value (24 HOUR) was −1.29 and the “JUNB Raw Est Fold Change” value (24 HOUR) was −4.94. The “KDELR2 Raw Est Fold Change” value (24 HOUR) was −1.19, the “KIAA0040 Raw Est Fold Change” value (24 HOUR) was −5.04 and the “KPNB1 Raw Est Fold Change” value (24 HOUR) was −1.12. For the same molecule, the “LEPR Raw Est Fold Change” value (24 HOUR) was 2.89, the “LIFR Raw Est Fold Change” value (24 HOUR) was 1.33 and the “LRG1 Raw Est Fold Change” value (24 HOUR) was −2.10. For the same molecule, the “LRP4 Raw Est Fold Change” value (24 HOUR) was −2.17, the “MAFB Raw Est Fold Change” value (24 HOUR) was 2.60 and the “MAFF Raw Est Fold Change” value (24 HOUR) was −2.09. For the same molecule, the “MAP3K8 Raw Est Fold Change” value (24 HOUR) was −3.81, the “MCL1 Raw Est Fold Change” value (24 HOUR) was −1.16 and the “MLKL Raw Est Fold Change” value (24 HOUR) was −1.78. The “MSR1 Raw Est Fold Change” value (24 HOUR) was −2.06, the “MT1M Raw Est Fold Change” value (24 HOUR) was −3.35 and the “MT1X Raw Est Fold Change” value (24 HOUR) was −6.73. For the same molecule, the “MTHFD2L Raw Est Fold Change” value (24 HOUR) was −2.20, the “MTMR1 Raw Est Fold Change” value (24 HOUR) was −1.14 and the “MYD88 Raw Est Fold Change” value (24 HOUR) was 1.15. The “MYT1 Raw Est Fold Change” value (24 HOUR) was −3.59, the “N4BP1 Raw Est Fold Change” value (24 HOUR) was −1.40 and the “NFE2 Raw Est Fold Change” value (24 HOUR) was −8.28. The “NFKBIA Raw Est Fold Change” value (24 HOUR) was −1.38, the “NPAS2 Raw Est Fold Change” value (24 HOUR) was −2.77 and the “NUB1 Raw Est Fold Change” value (24 HOUR) was −1.47. For the same molecule, the “PADI2 Raw Est Fold Change” value (24 HOUR) was 2.66, the “PCGF2 Raw Est Fold Change” value (24 HOUR) was 1.44 and the “PCMT1 Raw Est Fold Change” value (24 HOUR) was −1.10. The “PCTK2 Raw Est Fold Change” value (24 HOUR) was −1.85, the “PCTK3 Raw Est Fold Change” value (24 HOUR) was 1.59 and the “PDGFA Raw Est Fold Change” value (24 HOUR) was 1.23. The “PDGFRL Raw Est Fold Change” value (24 HOUR) was −1.86, the “PDK1 Raw Est Fold Change” value (24 HOUR) was −1.48 and the “PEX26 Raw Est Fold Change” value (24 HOUR) was 1.29. For the same molecule, the “PIM3 Raw Est Fold Change” value (24 HOUR) was −2.56, the “PLOD2 Raw Est Fold Change” value (24 HOUR) was −1.22 and the “PLSCR1 Raw Est Fold Change” value (24 HOUR) was −3.34. For the same molecule, the “PNRC1 Raw Est Fold Change” value (24 HOUR) was −2.42, the “PPIC Raw Est Fold Change” value (24 HOUR) was −1.23 and the “PPP1R3D Raw Est Fold Change” value (24 HOUR) was −1.49. For the same molecule, the “PSCD1 Raw Est Fold Change” value (24 HOUR) was −1.21, the “PSMA2 Raw Est Fold Change” value (24 HOUR) was 1.27 and the “PSMB9 Raw Est Fold Change” value (24 HOUR) was −1.86. The “PTEN Raw Est Fold Change” value (24 HOUR) was 1.23, the “RAB27A Raw Est Fold Change” value (24 HOUR) was −2.33 and the “RANBP1 Raw Est Fold Change” value (24 HOUR) was 1.13. For the same molecule, the “RBCK1 Raw Est Fold Change” value (24 HOUR) was 1.34, the “RBL1 Raw Est Fold Change” value (24 HOUR) was −4.92 and the “RBMS1 Raw Est Fold Change” value (24 HOUR) was −1.38. The “RHOH Raw Est Fold Change” value (24 HOUR) was 5.26, the “RXRA Raw Est Fold Change” value (24 HOUR) was 1.46 and the “SAT Raw Est Fold Change” value (24 HOUR) was −1.57. For the same molecule, the “SDC2 Raw Est Fold Change” value (24 HOUR) was 1.96, the “SERPINB9 Raw Est Fold Change” value (24 HOUR) was −1.86 and the “SFPQ Raw Est Fold Change” value (24 HOUR) was −1.39. The “SFTPC Raw Est Fold Change” value (24 HOUR) was −1.66, the “SLC15A2 Raw Est Fold Change” value (24 HOUR) was −1.58 and the “SLC25A28 Raw Est Fold Change” value (24 HOUR) was −1.54. For the same molecule, the “SLC25A30 Raw Est Fold Change” value (24 HOUR) was 1.53, the “SMAD3 Raw Est Fold Change” value (24 HOUR) was −1.19 and the “SOAT2 Raw Est Fold Change” value (24 HOUR) was 4.03. For the same molecule, the “SOCS1 Raw Est Fold Change” value (24 HOUR) was −9.88, the “SOCS3 Raw Est Fold Change” value (24 HOUR) was −3.51 and the “SPTLC2 Raw Est Fold Change” value (24 HOUR) was −10.08. For the same molecule, the “SQLE Raw Est Fold Change” value (24 HOUR) was −1.98, the “SQRDL Raw Est Fold Change” value (24 HOUR) was −1.45 and the “SSBP3 Raw Est Fold Change” value (24 HOUR) was 1.35. For the same molecule, the “STAT1 Raw Est Fold Change” value (24 HOUR) was −2.14, the “STEAP4 Raw Est Fold Change” value (24 HOUR) was −65.16 and the “TAP1 Raw Est Fold Change” value (24 HOUR) was −1.60. The “TAP2 Raw Est Fold Change” value (24 HOUR) was −1.54, the “TBX3 Raw Est Fold Change” value (24 HOUR) was 1.42 and the “TCF7L2 Raw Est Fold Change” value (24 HOUR) was −1.29. The “TEAD4 Raw Est Fold Change” value (24 HOUR) was −2.33, the “TFPI Raw Est Fold Change” value (24 HOUR) was −1.38 and the “THBD Raw Est Fold Change” value (24 HOUR) was −9.02. For the same molecule, the “THBS1 Raw Est Fold Change” value (24 HOUR) was −1.44, the “TMEM2 Raw Est Fold Change” value (24 HOUR) was −1.35 and the “TMEM49 Raw Est Fold Change” value (24 HOUR) was −2.07. For the same molecule, the “TMEM67 Raw Est Fold Change” value (24 HOUR) was −4.34, the “TNFSF13B Raw Est Fold Change” value (24 HOUR) was 1.36 and the “TRIM14 Raw Est Fold Change” value (24 HOUR) was 1.36. For the same molecule, the “TRIM26 Raw Est Fold Change” value (24 HOUR) was 1.56, the “TXNIP Raw Est Fold Change” value (24 HOUR) was −1.37 and the “UBE2S Raw Est Fold Change” value (24 HOUR) was −1.40. For the same molecule, the “USP12 Raw Est Fold Change” value (24 HOUR) was −1.96, the “USP25 Raw Est Fold Change” value (24 HOUR) was −1.22 and the “VAT1 Raw Est Fold Change” value (24 HOUR) was 1.21. For the same molecule, the “YWHAE Raw Est Fold Change” value (24 HOUR) was −1.11, the “ZFYVE26 Raw Est Fold Change” value (24 HOUR) was 1.31 and the “ZNF24 Raw Est Fold Change” value (24 HOUR) was −1.16. The “ZNF295 Raw Est Fold Change” value (24 HOUR) was −1.84, the “ABHD5 Raw Est Fold Change” value (DAY 7) was −2.05 and the “ACSL1 Raw Est Fold Change” value (DAY 7) was 1.78. For the same molecule, the “ADM Raw Est Fold Change” value (DAY 7) was −3.85, the “AGXT Raw Est Fold Change” value (DAY 7) was 2.54 and the “AHR Raw Est Fold Change” value (DAY 7) was −2.08. For the same molecule, the “AKR1B1 Raw Est Fold Change” value (DAY 7) was −3.52, the “AKT3 Raw Est Fold Change” value (DAY 7) was −5.29 and the “ALCAM Raw Est Fold Change” value (DAY 7) was −1.46. For the same molecule, the “ALDH1A1 Raw Est Fold Change” value (DAY 7) was 1.54, the “AMPH Raw Est Fold Change” value (DAY 7) was −21.01 and the “APOL6 Raw Est Fold Change” value (DAY 7) was 1.36. The “ARHGDIB Raw Est Fold Change” value (DAY 7) was −3.40.
